{
  "source": "patent US6395896B2",
  "about": "“Pyridazine derivatives, manufacturing method and related composition” (Shiseido Co., Ltd., priority 1999, dated 2002)",
  "experiment": "Perfume stabilization effect (photostabilizer, sunlight exposure, judgement by perfumier)",
  "design": "key to Sunlight exposure (80 MJ) Smell evaluation / Sunlight exposure (80 MJ) evaluation: A: No change; B: No almost change; C: Yes change",
  "method": "Next, the photostabilization effect for each perfume was studied by the following evaluation formulation.\nEach test sample was prepared. Change of smell of sample exposed to sunlight (80 MJ) was observed (judgement by perfumier).",
  "data": [
    {"molecule": "Oc1nncc(N2CCOCC2)c1N1CCOCC1", "note": "[4,5-Dimorpholino-3-hydroxypyridazine]", "values": [
      {"measurement": "Sunlight exposure (80 MJ) Smell evaluation", "setting": "Base perfume Aldehyde 0.03 wt %, photostabilizer 0.2 wt %", "result": "A"},
      {"measurement": "Sunlight exposure (80 MJ) Smell evaluation", "setting": "Base perfume Animal 0.03 wt %, photostabilizer 0.3 wt %", "result": "A"},
      {"measurement": "Sunlight exposure (80 MJ) Smell evaluation", "setting": "Base perfume Chypre 0.03 wt %, photostabilizer 0.01 wt %", "result": "A"},
      {"measurement": "Sunlight exposure (80 MJ) Smell evaluation", "setting": "Base perfume Citrus 0.03 wt %, photostabilizer 0.03 wt %", "result": "A"},
      {"measurement": "Sunlight exposure (80 MJ) Smell evaluation", "setting": "Base perfume Fougere 0.03 wt %, photostabilizer 0.1 wt %", "result": "A"},
      {"measurement": "Sunlight exposure (80 MJ) Smell evaluation", "setting": "Base perfume Fruity 0.03 wt %, photostabilizer 0.1 wt %", "result": "A"},
      {"measurement": "Sunlight exposure (80 MJ) Smell evaluation", "setting": "Base perfume Green 0.03 wt %, photostabilizer 0.05 wt %", "result": "A"},
      {"measurement": "Sunlight exposure (80 MJ) Smell evaluation", "setting": "Base perfume Jasmine 0.03 wt %, photostabilizer 0.01 wt %", "result": "A"},
      {"measurement": "Sunlight exposure (80 MJ) Smell evaluation", "setting": "Base perfume Muguet 0.03 wt %, photostabilizer 0.05 wt %", "result": "A"},
      {"measurement": "Sunlight exposure (80 MJ) Smell evaluation", "setting": "Base perfume Oriental 0.03 wt %, photostabilizer 0.1 wt %", "result": "A"},
      {"measurement": "Sunlight exposure (80 MJ) Smell evaluation", "setting": "Base perfume Rose 0.03 wt %, photostabilizer 0.05 wt %", "result": "A"},
      {"measurement": "Sunlight exposure (80 MJ) Smell evaluation", "setting": "Base perfume Spicy 0.03 wt %, photostabilizer 0.2 wt %", "result": "A"},
      {"measurement": "Sunlight exposure (80 MJ) Smell evaluation", "setting": "Base perfume Woody 0.03 wt %, photostabilizer 0.1 wt %", "result": "A"},
      {"measurement": "Sunlight exposure (80 MJ) Smell evaluation", "setting": "Natural perfume Jasmine oil 0.03 wt %, photostabilizer 0.05 wt %", "result": "A"},
      {"measurement": "Sunlight exposure (80 MJ) Smell evaluation", "setting": "Natural perfume Lavender oil 0.03 wt %, photostabilizer 0.1 wt %", "result": "A"},
      {"measurement": "Sunlight exposure (80 MJ) Smell evaluation", "setting": "Natural perfume Neroli oil 0.03 wt %, photostabilizer 0.1 wt %", "result": "A"},
      {"measurement": "Sunlight exposure (80 MJ) Smell evaluation", "setting": "Natural perfume Rose oil 0.03 wt %, photostabilizer 0.05 wt %", "result": "A"},
      {"measurement": "Sunlight exposure (80 MJ) Smell evaluation", "setting": "Natural perfume Ylang ylang oil 0.03 wt %, photostabilizer 0.2 wt %", "result": "A"},
      {"measurement": "Sunlight exposure (80 MJ) Smell evaluation", "setting": "Synthetic perfume Citral 0.03 wt %, photostabilizer 0.1 wt %", "result": "A"},
      {"measurement": "Sunlight exposure (80 MJ) Smell evaluation", "setting": "Synthetic perfume Limonene 0.03 wt %, photostabilizer 0.05 wt %", "result": "A"},
      {"measurement": "Sunlight exposure (80 MJ) Smell evaluation", "setting": "Synthetic perfume Linalool 0.03 wt %, photostabilizer 0.05 wt %", "result": "A"},
      {"measurement": "Sunlight exposure (80 MJ) Smell evaluation", "setting": "Synthetic perfume Linalyl acetate 0.03 wt %, photostabilizer 0.1 wt %", "result": "A"},
      {"measurement": "Sunlight exposure (80 MJ) Smell evaluation", "setting": "Synthetic perfume Rose oxide 0.03 wt %, photostabilizer 0.2 wt %", "result": "A"},
      {"measurement": "change of smell", "setting": "base perfume, summary of Table 19", "result": "very small in comparison with other photostabilizers"},
      {"measurement": "Sunlight exposure (80 MJ) evaluation", "setting": "natural perfume Ambergris oil, photostabilizer amount 0.3 wt %", "result": "A"},
      {"measurement": "Sunlight exposure (80 MJ) evaluation", "setting": "natural perfume Bergamot oil, photostabilizer amount 0.1 wt %", "result": "A"},
      {"measurement": "Sunlight exposure (80 MJ) evaluation", "setting": "natural perfume Castoreum oil, photostabilizer amount 0.3 wt %", "result": "A"},
      {"measurement": "Sunlight exposure (80 MJ) evaluation", "setting": "natural perfume Cinnamon oil, photostabilizer amount 0.01 wt %", "result": "A"},
      {"measurement": "Sunlight exposure (80 MJ) evaluation", "setting": "natural perfume Civet oil, photostabilizer amount 0.2 wt %", "result": "A"},
      {"measurement": "Sunlight exposure (80 MJ) evaluation", "setting": "natural perfume Clary sage oil, photostabilizer amount 0.03 wt %", "result": "A"},
      {"measurement": "Sunlight exposure (80 MJ) evaluation", "setting": "natural perfume Cloves oil, photostabilizer amount 0.03 wt %", "result": "A"},
      {"measurement": "Sunlight exposure (80 MJ) evaluation", "setting": "natural perfume Coriander oil, photostabilizer amount 0.01 wt %", "result": "A"},
      {"measurement": "Sunlight exposure (80 MJ) evaluation", "setting": "natural perfume Geranium oil, photostabilizer amount 0.03 wt %", "result": "A"},
      {"measurement": "Sunlight exposure (80 MJ) evaluation", "setting": "natural perfume Lemon oil, photostabilizer amount 0.001 wt %", "result": "A"},
      {"measurement": "Sunlight exposure (80 MJ) evaluation", "setting": "natural perfume Moss oil, photostabilizer amount 0.2 wt %", "result": "A"},
      {"measurement": "Sunlight exposure (80 MJ) evaluation", "setting": "natural perfume Nutmeg oil, photostabilizer amount 0.01 wt %", "result": "A"},
      {"measurement": "Sunlight exposure (80 MJ) evaluation", "setting": "natural perfume Oakmoss oil, photostabilizer amount 0.2 wt %", "result": "A"},
      {"measurement": "Sunlight exposure (80 MJ) evaluation", "setting": "natural perfume Opopanax oil, photostabilizer amount 0.1 wt %", "result": "A"},
      {"measurement": "Sunlight exposure (80 MJ) evaluation", "setting": "natural perfume Orange oil, photostabilizer amount 0.1 wt %", "result": "A"},
      {"measurement": "Sunlight exposure (80 MJ) evaluation", "setting": "natural perfume Orris oil, photostabilizer amount 0.2 wt %", "result": "A"},
      {"measurement": "Sunlight exposure (80 MJ) evaluation", "setting": "natural perfume Patchouli oil, photostabilizer amount 0.01 wt %", "result": "A"},
      {"measurement": "Sunlight exposure (80 MJ) evaluation", "setting": "natural perfume Pepper oil, photostabilizer amount 0.001 wt %", "result": "A"},
      {"measurement": "Sunlight exposure (80 MJ) evaluation", "setting": "natural perfume Peppermint oil, photostabilizer amount 0.03 wt %", "result": "A"},
      {"measurement": "Sunlight exposure (80 MJ) evaluation", "setting": "natural perfume Sandals wood oil, photostabilizer amount 0.01 wt %", "result": "A"},
      {"measurement": "Sunlight exposure (80 MJ) evaluation", "setting": "natural perfume Tuberose oil, photostabilizer amount 0.03 wt %", "result": "A"},
      {"measurement": "Sunlight exposure (80 MJ) evaluation", "setting": "natural perfume Vetiver oil, photostabilizer amount 0.2 wt %", "result": "A"},
      {"measurement": "change of smell", "setting": "natural perfume, summary of Table 17", "result": "very small in comparison with other photostabilizers"},
      {"measurement": "Sunlight exposure (80 MJ) Smell evaluation", "setting": "synthetic perfume 2,6-Nonadienal, photostabilizer amount 0.03 wt %", "result": "A"},
      {"measurement": "Sunlight exposure (80 MJ) Smell evaluation", "setting": "synthetic perfume Benzyl benzoate, photostabilizer amount 0.1 wt %", "result": "A"},
      {"measurement": "Sunlight exposure (80 MJ) Smell evaluation", "setting": "synthetic perfume Cyclopentadecanone, photostabilizer amount 0.05 wt %", "result": "A"},
      {"measurement": "Sunlight exposure (80 MJ) Smell evaluation", "setting": "synthetic perfume Eugenol, photostabilizer amount 0.1 wt %", "result": "A"},
      {"measurement": "Sunlight exposure (80 MJ) Smell evaluation", "setting": "synthetic perfume Farnesol, photostabilizer amount 0.01 wt %", "result": "A"},
      {"measurement": "Sunlight exposure (80 MJ) Smell evaluation", "setting": "synthetic perfume I-Carvone, photostabilizer amount 0.05 wt %", "result": "A"},
      {"measurement": "Sunlight exposure (80 MJ) Smell evaluation", "setting": "synthetic perfume Indole, photostabilizer amount 0.2 wt %", "result": "A"},
      {"measurement": "Sunlight exposure (80 MJ) Smell evaluation", "setting": "synthetic perfume Lilial, photostabilizer amount 0.3 wt %", "result": "A"},
      {"measurement": "Sunlight exposure (80 MJ) Smell evaluation", "setting": "synthetic perfume Lyral, photostabilizer amount 0.3 wt %", "result": "A"},
      {"measurement": "Sunlight exposure (80 MJ) Smell evaluation", "setting": "synthetic perfume Phenylacetaldehyde dimethyl acetal, photostabilizer amount 0.2 wt %", "result": "A"},
      {"measurement": "Sunlight exposure (80 MJ) Smell evaluation", "setting": "synthetic perfume cis-3-Hexenol, photostabilizer amount 0.01 wt %", "result": "A"},
      {"measurement": "Sunlight exposure (80 MJ) Smell evaluation", "setting": "synthetic perfume α-Hexyl cinnamic aldehyde, photostabilizer amount 0.03 wt %", "result": "A"},
      {"measurement": "Sunlight exposure (80 MJ) Smell evaluation", "setting": "synthetic perfume β-Caryophyllene, photostabilizer amount 0.01 wt %", "result": "A"},
      {"measurement": "Sunlight exposure (80 MJ) Smell evaluation", "setting": "synthetic perfume β-Ionone, photostabilizer amount 0.05 wt %", "result": "A"},
      {"measurement": "Sunlight exposure (80 MJ) Smell evaluation", "setting": "synthetic perfume β-Phenylethyl alcohol, photostabilizer amount 0.03 wt %", "result": "A"},
      {"measurement": "Sunlight exposure (80 MJ) Smell evaluation", "setting": "synthetic perfume γ-Undecalactone, photostabilizer amount 0.1 wt %", "result": "A"},
      {"measurement": "change of smell", "setting": "synthetic perfume, summary of Table 18", "result": "very small in comparison with other photostabilizers"}
    ]}
  ]
}
